According to patent publication US12421232B2, “Kinase inhibitor compounds and compositions and methods of use” (ICAHN SCHOOL OF MEDICINE AT MOUNT SINAI, priority 2018, dated 2025):
Read-outs that look alike come from different tables or passages of the source.

Columns and labels:
Test in all cases: KINOMEscan Assay (DiscoverX)
Type in all cases: binding
Conditions in all cases: read-out: % DMSO Ctrl
[1] = target: T1, PDGFRB (Homo sapiens, UniProt P09619)
T1 construct: purchased DiscoverX

[2] = target: T2, PIKFYVE (Homo sapiens, UniProt Q9Y2I7)
T2 construct: purchased DiscoverX

[3] = target: T3, FLT3-autoinhibited (Homo sapiens, UniProt P36888)
T3 construct: purchased DiscoverX
T3 sequence (P36888 564-993 limits assumed): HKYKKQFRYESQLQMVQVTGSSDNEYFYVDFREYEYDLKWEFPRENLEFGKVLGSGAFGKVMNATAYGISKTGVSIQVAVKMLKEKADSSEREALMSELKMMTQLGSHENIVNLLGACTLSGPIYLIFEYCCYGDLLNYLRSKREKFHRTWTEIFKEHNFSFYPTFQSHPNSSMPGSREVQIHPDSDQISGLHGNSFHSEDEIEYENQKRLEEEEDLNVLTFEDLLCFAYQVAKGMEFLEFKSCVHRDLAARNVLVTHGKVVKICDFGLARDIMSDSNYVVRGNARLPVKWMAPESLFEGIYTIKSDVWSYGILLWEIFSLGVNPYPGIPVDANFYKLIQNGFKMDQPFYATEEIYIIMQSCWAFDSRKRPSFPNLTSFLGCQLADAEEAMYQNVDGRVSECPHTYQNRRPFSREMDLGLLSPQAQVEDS

[4] = target: T4, MEK2 (Homo sapiens, UniProt P36507)
T4 construct: purchased DiscoverX

[5] = target: T5, RPS6KA4(Kin.Dom.2-C-terminal) (Homo sapiens, UniProt O75676)
T5 construct: Kin.Dom.2; purchased DiscoverX

[6] = target: T6, IRAK3 (Homo sapiens, UniProt Q9Y616)
T6 construct: purchased DiscoverX
T6 sequence (Q9Y616 1-596): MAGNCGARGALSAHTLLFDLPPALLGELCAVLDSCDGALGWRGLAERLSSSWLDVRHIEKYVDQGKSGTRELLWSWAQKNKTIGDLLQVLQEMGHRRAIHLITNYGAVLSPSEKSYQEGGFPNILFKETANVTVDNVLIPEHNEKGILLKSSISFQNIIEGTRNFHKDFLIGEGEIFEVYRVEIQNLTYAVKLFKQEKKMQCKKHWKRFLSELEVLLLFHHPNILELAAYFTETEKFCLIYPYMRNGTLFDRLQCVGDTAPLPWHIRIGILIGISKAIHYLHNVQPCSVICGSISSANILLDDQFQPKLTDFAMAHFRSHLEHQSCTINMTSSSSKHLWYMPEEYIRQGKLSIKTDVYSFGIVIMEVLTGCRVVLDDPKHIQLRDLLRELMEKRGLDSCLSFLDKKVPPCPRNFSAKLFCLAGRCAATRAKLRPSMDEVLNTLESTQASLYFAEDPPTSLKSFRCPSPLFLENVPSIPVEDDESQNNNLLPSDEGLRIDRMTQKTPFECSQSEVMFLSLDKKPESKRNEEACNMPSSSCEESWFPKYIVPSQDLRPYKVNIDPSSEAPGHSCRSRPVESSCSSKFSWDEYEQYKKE

[7] = target: T7, KIT(L576P) (Homo sapiens, UniProt P10721, L576P)
T7 construct: purchased DiscoverX

[8] = target: T8, EGFR(L858R,T790M) (Homo sapiens, UniProt P00533, L858R/T790M)
T8 construct: purchased DiscoverX

[9] = target: T9, IRAK1 (Homo sapiens, UniProt P51617)
T9 construct: purchased DiscoverX

[10] = target: T10, CSNK2A1 (Homo sapiens, UniProt P68400)
T10 construct: purchased DiscoverX

[11] = target: T11, DYRK1B (Homo sapiens, UniProt Q9Y463)
T11 construct: purchased DiscoverX

[12] = target: T12, HIPK3 (Homo sapiens, UniProt Q9H422)
T12 construct: purchased DiscoverX

[13] = target: T13, CSNK1G2 (Homo sapiens, UniProt P78368)
T13 construct: purchased DiscoverX

[14] = target: T14, HASPIN (Homo sapiens, UniProt Q8TF76)
T14 construct: purchased DiscoverX
T14 sequence (Q8TF76 1-798): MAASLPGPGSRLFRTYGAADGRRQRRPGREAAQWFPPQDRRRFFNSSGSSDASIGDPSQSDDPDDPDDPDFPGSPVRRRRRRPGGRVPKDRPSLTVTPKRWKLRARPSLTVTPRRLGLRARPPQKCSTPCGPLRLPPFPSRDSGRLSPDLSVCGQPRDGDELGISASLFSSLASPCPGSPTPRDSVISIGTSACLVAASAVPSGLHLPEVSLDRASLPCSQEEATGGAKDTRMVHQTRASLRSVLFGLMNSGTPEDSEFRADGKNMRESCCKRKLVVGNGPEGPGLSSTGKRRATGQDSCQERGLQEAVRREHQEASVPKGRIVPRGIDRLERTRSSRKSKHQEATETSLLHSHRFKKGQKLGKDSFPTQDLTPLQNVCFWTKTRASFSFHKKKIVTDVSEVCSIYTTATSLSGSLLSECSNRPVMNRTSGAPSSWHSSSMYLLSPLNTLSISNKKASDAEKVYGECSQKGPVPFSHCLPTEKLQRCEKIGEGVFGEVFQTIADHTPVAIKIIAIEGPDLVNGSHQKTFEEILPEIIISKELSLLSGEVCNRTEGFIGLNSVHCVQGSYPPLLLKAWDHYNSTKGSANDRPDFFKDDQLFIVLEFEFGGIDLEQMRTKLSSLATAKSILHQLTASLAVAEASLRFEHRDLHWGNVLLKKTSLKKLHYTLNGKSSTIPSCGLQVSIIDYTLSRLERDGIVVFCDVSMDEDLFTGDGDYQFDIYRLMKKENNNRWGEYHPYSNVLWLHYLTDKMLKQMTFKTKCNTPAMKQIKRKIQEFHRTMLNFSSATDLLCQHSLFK

T11 sequence (Q9Y463 whole entry): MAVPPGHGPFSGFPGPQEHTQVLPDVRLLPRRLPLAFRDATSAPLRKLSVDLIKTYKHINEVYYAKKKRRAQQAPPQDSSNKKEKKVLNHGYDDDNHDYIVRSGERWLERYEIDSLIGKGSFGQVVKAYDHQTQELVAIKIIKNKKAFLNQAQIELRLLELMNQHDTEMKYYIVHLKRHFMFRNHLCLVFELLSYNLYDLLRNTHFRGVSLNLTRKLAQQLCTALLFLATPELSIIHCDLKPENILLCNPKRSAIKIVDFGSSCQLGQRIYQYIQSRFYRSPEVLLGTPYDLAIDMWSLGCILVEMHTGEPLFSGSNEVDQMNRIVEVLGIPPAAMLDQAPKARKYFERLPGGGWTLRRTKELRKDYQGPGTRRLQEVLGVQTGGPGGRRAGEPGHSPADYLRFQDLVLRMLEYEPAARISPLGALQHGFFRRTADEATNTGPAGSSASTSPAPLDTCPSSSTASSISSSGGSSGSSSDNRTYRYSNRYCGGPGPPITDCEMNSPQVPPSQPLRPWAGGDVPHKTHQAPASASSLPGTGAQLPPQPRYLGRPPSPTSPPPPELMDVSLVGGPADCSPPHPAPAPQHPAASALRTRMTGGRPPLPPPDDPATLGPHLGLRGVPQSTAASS
T4 sequence (P36507 whole entry): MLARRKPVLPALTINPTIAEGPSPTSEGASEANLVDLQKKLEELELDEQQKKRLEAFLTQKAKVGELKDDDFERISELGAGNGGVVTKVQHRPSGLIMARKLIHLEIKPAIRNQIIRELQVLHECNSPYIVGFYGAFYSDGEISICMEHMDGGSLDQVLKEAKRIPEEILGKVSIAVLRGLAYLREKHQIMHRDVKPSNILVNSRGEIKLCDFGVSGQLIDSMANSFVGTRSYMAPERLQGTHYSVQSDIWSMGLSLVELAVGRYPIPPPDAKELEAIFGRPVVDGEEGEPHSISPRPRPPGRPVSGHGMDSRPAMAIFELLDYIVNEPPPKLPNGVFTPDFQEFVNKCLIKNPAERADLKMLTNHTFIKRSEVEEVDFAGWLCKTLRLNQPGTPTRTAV
T8 sequence (P00533 25-1210 T790M/L858R): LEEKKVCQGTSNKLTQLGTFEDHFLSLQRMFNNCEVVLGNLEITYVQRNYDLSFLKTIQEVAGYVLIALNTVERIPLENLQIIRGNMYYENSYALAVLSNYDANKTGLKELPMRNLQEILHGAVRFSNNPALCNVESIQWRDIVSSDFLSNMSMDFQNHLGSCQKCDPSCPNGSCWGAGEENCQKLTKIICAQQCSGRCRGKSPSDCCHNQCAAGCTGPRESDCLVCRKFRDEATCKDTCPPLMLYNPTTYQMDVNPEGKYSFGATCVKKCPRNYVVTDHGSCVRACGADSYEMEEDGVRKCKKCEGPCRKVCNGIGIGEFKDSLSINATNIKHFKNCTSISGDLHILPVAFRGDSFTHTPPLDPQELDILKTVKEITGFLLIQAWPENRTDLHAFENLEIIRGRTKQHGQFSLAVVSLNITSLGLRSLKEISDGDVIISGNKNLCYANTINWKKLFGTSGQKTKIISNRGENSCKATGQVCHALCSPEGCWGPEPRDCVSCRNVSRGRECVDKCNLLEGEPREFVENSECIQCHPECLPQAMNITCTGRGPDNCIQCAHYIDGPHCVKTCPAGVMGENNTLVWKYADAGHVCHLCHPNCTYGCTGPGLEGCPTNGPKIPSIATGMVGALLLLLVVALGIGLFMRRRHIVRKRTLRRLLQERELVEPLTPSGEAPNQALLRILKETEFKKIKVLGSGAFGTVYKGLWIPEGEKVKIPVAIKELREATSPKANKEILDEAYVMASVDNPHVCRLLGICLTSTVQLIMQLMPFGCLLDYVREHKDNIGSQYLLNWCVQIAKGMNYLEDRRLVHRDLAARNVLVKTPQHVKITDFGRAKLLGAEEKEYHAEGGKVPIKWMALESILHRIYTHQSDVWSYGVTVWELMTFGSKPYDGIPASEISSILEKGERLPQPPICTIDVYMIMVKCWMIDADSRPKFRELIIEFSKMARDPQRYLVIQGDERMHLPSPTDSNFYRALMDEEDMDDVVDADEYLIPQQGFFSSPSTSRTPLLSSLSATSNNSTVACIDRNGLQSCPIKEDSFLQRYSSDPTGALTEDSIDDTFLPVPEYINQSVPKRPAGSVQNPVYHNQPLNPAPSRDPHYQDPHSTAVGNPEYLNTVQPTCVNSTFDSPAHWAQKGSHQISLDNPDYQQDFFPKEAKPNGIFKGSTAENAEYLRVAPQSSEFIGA
T1 sequence (P09619 33-1106): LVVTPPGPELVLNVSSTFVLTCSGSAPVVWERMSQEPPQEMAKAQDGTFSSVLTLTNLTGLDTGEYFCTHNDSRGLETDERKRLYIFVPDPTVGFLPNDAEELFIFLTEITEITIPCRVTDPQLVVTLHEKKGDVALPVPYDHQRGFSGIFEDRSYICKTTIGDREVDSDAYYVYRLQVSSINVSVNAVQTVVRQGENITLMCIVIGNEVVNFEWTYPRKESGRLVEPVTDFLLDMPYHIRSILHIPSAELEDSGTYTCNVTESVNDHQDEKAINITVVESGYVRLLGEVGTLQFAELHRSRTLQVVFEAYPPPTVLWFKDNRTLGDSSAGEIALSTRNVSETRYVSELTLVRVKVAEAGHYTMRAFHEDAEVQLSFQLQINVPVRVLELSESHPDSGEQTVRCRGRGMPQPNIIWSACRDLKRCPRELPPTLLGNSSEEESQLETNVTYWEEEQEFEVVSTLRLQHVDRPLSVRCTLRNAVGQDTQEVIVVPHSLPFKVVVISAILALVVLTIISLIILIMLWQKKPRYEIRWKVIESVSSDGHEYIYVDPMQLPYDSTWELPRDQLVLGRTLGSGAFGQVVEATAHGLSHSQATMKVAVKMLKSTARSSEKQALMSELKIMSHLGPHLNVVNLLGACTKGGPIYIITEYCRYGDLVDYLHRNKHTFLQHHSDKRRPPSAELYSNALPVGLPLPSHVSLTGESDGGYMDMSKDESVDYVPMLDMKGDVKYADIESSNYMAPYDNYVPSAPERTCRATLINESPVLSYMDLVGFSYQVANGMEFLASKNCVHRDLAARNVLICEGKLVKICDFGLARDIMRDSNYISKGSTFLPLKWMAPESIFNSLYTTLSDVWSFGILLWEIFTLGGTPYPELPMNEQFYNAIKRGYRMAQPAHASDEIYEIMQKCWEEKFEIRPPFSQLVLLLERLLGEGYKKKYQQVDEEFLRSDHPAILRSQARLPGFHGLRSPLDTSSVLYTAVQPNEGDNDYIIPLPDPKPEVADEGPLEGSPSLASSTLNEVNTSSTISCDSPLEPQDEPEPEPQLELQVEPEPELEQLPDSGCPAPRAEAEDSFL
T7 sequence (P10721 26-976 L576P): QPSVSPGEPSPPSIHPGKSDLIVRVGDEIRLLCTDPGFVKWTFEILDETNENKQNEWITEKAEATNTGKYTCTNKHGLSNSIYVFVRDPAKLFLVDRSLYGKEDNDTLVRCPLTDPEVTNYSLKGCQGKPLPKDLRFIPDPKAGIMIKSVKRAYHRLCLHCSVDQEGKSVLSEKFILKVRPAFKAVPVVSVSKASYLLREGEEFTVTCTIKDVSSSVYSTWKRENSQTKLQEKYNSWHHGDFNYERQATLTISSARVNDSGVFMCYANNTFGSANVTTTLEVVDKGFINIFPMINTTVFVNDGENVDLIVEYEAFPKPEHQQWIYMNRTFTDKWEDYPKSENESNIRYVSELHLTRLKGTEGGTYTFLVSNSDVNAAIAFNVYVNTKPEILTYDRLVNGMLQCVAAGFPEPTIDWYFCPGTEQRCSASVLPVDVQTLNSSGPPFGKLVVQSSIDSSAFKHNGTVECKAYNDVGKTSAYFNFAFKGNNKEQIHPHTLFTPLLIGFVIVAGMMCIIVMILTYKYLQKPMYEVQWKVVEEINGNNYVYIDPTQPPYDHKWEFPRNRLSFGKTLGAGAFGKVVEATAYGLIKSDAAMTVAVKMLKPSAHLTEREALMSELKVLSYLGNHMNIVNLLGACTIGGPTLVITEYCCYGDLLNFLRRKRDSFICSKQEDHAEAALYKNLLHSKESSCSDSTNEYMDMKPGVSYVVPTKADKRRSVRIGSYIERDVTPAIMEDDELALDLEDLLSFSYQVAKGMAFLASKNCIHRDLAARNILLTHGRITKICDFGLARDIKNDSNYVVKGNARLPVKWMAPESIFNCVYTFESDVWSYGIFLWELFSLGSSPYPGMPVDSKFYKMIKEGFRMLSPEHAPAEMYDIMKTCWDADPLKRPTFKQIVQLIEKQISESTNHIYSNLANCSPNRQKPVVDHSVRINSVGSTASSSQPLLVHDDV
T9 sequence (P51617 whole entry): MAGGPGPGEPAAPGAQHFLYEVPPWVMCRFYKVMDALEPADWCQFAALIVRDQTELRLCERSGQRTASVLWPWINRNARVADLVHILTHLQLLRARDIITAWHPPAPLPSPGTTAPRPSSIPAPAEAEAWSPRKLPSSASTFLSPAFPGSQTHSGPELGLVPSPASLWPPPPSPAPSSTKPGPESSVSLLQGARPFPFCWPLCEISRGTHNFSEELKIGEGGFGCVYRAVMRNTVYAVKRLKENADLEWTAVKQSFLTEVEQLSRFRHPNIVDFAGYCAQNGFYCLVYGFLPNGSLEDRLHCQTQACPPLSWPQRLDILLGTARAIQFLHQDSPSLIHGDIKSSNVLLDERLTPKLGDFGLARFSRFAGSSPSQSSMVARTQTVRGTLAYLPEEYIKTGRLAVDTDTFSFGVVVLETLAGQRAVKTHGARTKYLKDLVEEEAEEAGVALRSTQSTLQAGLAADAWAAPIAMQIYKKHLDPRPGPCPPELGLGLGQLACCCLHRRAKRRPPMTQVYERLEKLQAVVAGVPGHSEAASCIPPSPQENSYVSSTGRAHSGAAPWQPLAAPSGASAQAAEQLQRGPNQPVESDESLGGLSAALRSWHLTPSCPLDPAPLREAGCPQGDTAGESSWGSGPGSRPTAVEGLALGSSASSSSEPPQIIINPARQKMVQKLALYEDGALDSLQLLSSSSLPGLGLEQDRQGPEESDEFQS

Q: What does the source list for COc1ccc2c(c1)[nH]c1c(C)nc(CO)cc12 [Compound 2-8, (1-Methyl-7-methoxy-9H-pyrido[3,4-b]indol-3-yl)methanol]?
A: remaining binding at 10 µM ([1]; PDGFRB, 10 μM): 97%; remaining binding at 10 µM ([2]; PIKFYVE, 10 μM): 88%; remaining binding at 10 µM ([3]; FLT3-autoinhibited, 10 μM): 100%; remaining binding at 10 µM ([4]; MEK2, 10 μM): 100%; remaining binding at 10 µM ([5]; RPS6KA4(Kin.Dom.2-C-terminal), 10 μM): 1%; remaining binding at 10 µM ([6]; IRAK3, 10 μM): 70%; remaining binding at 10 µM ([7]; KIT(L576P) mutant, 10 μM): 94%; remaining binding at 10 µM ([8]; EGFR(L858R,T790M) mutant, 10 μM): 79%

Q: How did the remaining binding at 10 µM [1] turn out when COc1ccc2c3ccnc(C)c3n(CCCc3noc(N)n3)c2c1 [Compound 20-13, 3-(3-(7-Methoxy-1-methyl-β-carbolin-9-yl)propyl)-5-amino-1,2,4-oxadiazole] was run?
A: Its remaining binding at 10 µM is 100%.

Q: What about the remaining binding at 10 µM [9] of the same compound?
A: Its remaining binding at 10 µM is 58%.

Q: And the remaining binding at 10 µM [10]?
A: Its remaining binding at 10 µM is 49%.

Q: What about the remaining binding at 10 µM [11] of the same compound?
A: Its remaining binding at 10 µM is 1%.

Q: What about the remaining binding at 10 µM [2] of the same compound?
A: The remaining binding at 10 µM was 3.2%.

Q: What about the remaining binding at 10 µM [3] of the same compound?
A: Its remaining binding at 10 µM is 85%.

Q: And the remaining binding at 10 µM [12]?
A: Its remaining binding at 10 µM is 6.2%.

Q: What about the remaining binding at 10 µM [4] of the same compound?
A: The remaining binding at 10 µM was 0%.

Q: What about the remaining binding at 10 µM [13] of the same compound?
A: The remaining binding at 10 µM was 91%.

Q: What about the remaining binding at 10 µM [5] of the same compound?
A: Its remaining binding at 10 µM is 85%.

Q: And the remaining binding at 10 µM [6]?
A: The remaining binding at 10 µM was 62%.

Q: And the remaining binding at 10 µM [7]?
A: The remaining binding at 10 µM was 100%.

Q: And the remaining binding at 10 µM [8]?
A: Its remaining binding at 10 µM is 9.2%.

Q: And the remaining binding at 10 µM [14]?
A: The remaining binding at 10 µM was 0.35%.

Q: What does the source list for C#CCn1c2cc(OC)ccc2c2ccnc(C)c21 [Compound 20-23a, 3-(7-Methoxy-1-methyl-β-carbolin-9-yl)-propan-1-yne]?
A: remaining binding at 10 µM [1]: 77%; remaining binding at 10 µM ([9]; IRAK1, 10 μM): 42%; remaining binding at 10 µM ([10]; CSNK2A1, 10 μM): 46%; remaining binding at 10 µM ([11]; DYRK1B, 10 μM): 1.1%; remaining binding at 10 µM [2]: 60%; remaining binding at 10 µM [3]: 100%; remaining binding at 10 µM ([12]; HIPK3, 10 μM): 4.5%; remaining binding at 10 µM [4]: 96%; remaining binding at 10 µM ([13]; CSNK1G2, 10 μM): 56%; remaining binding at 10 µM [5]: 55%; remaining binding at 10 µM ([6]; IRAK3, 10 μM): 34%; remaining binding at 10 µM [7]: 74%; remaining binding at 10 µM [8]: 100%; remaining binding at 10 µM [14]: 1.7%

Q: COc1ccc2c(c1)[nH]c1c(C)nccc12 [Harmine, reference compound] was tested. Which remaining binding at 10 µM [9] did it give?
A: The remaining binding at 10 µM was 17%.

Q: And the remaining binding at 10 µM [10]?
A: Its remaining binding at 10 µM is 11%.

Q: What about the remaining binding at 10 µM [11] of the same compound?
A: The remaining binding at 10 µM was 6.1%.

Q: And the remaining binding at 10 µM [12]?
A: The remaining binding at 10 µM was 9.4%.

Q: What about the remaining binding at 10 µM [13] of the same compound?
A: The remaining binding at 10 µM was 19%.

Q: And the remaining binding at 10 µM [6]?
A: Its remaining binding at 10 µM is 35%.

Q: What about the remaining binding at 10 µM [14] of the same compound?
A: The remaining binding at 10 µM was 2%.
